Patent publication US10131652B2, “Pyrimidinyloxy benzene derivatives as herbicides” (E. I. DU PONT DE NEMOURS AND COMPANY, priority 2014, dated 2018)
Where two headings read alike, the source gives them in different places.

Experiments:
Format in all cases: in vivo
[1] = system: barnyardgrass (Echinochloa crus-galli); assay: Test B pre-/postemergence plant response; details: Echinochloa crus-galli, 240 h, read-out: Plant response rating, Barnyardgrass; for pest or weed control at 125 g/ha: 125 g ai/ha; for pest or weed control at 500 g/ha: 500 g ai/ha
Summary of the method: (§1)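 Visual injury scores on a 0–100 scale (100 = complete control) relative to untreated plants, taken about 10 days post-treatment in greenhouse. Treatments were a directed preemergence soil spray and a postemergence spray at one- to two-leaf stage, using surfactant-containing solvent formulation.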

corn (Zea mays) = assay: Test B pre-/postemergence plant response; details: Zea mays, 240 h; for Corn plant response rating (crop injury, 0 = no effect, 100 = complete kill) at 125 g/ha: 125 g ai/ha; for Corn plant response rating (crop injury, 0 = no effect, 100 = complete kill) at 500 g/ha: 500 g ai/ha
Summary of the method: as §1

[2] = system: giant foxtail (Setaria faberii); assay: Test B pre-/postemergence plant response; details: Setaria faberi, 240 h, read-out: Plant response rating, Foxtail, Giant; for pest or weed control at 125 g/ha: 125 g ai/ha; for pest or weed control at 500 g/ha: 500 g ai/ha
Summary of the method: as §1

[3] = system: pigweed (Amaranthus retroflexus); assay: Test B pre-/postemergence plant response; details: Amaranthus retroflexus, 240 h, read-out: Plant response rating, Pigweed; for pest or weed control at 125 g/ha: 125 g ai/ha; for pest or weed control at 500 g/ha: 500 g ai/ha
Summary of the method: as §1

[4] = system: wheat (Triticum aestivum); assay: Test B pre-/postemergence plant response; details: Triticum aestivum, 240 h, read-out: Plant response rating, Wheat; for plant injury at 125 g/ha: 125 g ai/ha; for plant injury at 500 g/ha: 500 g ai/ha
Summary of the method: as §1

[5] = system: barnyardgrass (Echinochloa crus-galli); assay: Test C flooded paddy test plant response; details: Echinochloa crus-galli; Flood, 250 g ai/ha; scale of 0 to 100 where 0 is no effect and 100 is complete control; 13 to 15 days; read-out: Barnyardgrass plant response rating
Summary of the method: (§2)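 Visual injury ratings (0, no effect; 100, complete control) were assigned after 13 to 15 days in a greenhouse, comparing treated plants with controls. Compounds had been added straight into paddy water over 2-leaf-stage plants flooded to 3 cm.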

[6] = system: ducksalad (Heteranthera limosa); assay: Test C flooded paddy test plant response; details: Heteranthera limosa; Flood, 250 g ai/ha; scale of 0 to 100 where 0 is no effect and 100 is complete control; 13 to 15 days; read-out: Ducksalad plant response rating
Summary of the method: as §2

rice (Oryza sativa) = assay: Test C flooded paddy test plant response; details: Oryza sativa; Flood, 250 g ai/ha; scale of 0 to 100 where 0 is no effect and 100 is complete control; 13 to 15 days; read-out: Rice plant response rating
Summary of the method: as §2

[7] = system: small-flower umbrella sedge (Cyperus difformis); assay: Test C flooded paddy test plant response; details: Cyperus difformis; Flood, 250 g ai/ha; scale of 0 to 100 where 0 is no effect and 100 is complete control; 13 to 15 days; read-out: Sedge, Umbrella plant response rating
Summary of the method: as §2

[8] = post-emergence, postemergence, 0 to 100 scale, 0 no effect, 100 complete control
[9] = post-emergence, Postemergence, 0 to 100 scale (0 no effect, 100 complete control)
[10] = pre-emergence, Preemergence, 0 to 100 scale where 0 is no effect and 100 is complete control

SMILES	pest or weed control at 125 g/ha [1, 8]	pest or weed control at 500 g/ha [1, 9]	pest or weed control at 125 g/ha [1, 10]	pest or weed control at 500 g/ha [1, 10]	Corn plant response rating (crop injury, 0 = no effect, 100 = complete kill) at 125 g/ha (corn (Zea mays); [8])	Corn plant response rating (crop injury, 0 = no effect, 100 = complete kill) at 500 g/ha (corn (Zea mays); [9])	Corn plant response rating (crop injury, 0 = no effect, 100 = complete kill) at 125 g/ha (corn (Zea mays); [10])	Corn plant response rating (crop injury, 0 = no effect, 100 = complete kill) at 500 g/ha (corn (Zea mays); [10])	pest or weed control at 125 g/ha [2, 8]	pest or weed control at 500 g/ha [2, 9]	pest or weed control at 125 g/ha [2, 10]	pest or weed control at 500 g/ha [2, 10]	pest or weed control at 125 g/ha [3, 8]	pest or weed control at 500 g/ha [3, 9]	pest or weed control at 125 g/ha [3, 10]	pest or weed control at 500 g/ha [3, 10]	plant injury at 125 g/ha [4, 8]	plant injury at 500 g/ha [4, 9]	plant injury at 125 g/ha [4, 10]	plant injury at 500 g/ha [4, 10]	also measured
FC(F)(F)c1ccnc(-c2ccccc2Oc2ncc(Cl)cn2)c1 [Compound 25, 5-chloro-2-[2-[4-(trifluoromethyl)-2-pyridinyl]phenoxy]pyrimidine]	0%	30%	10%	70%	10%	30%	0%	0%	0%	60%	40%	90%	30%	90%	60%	100%	0%	10%	0%	0%	pest or weed control at 250 g/ha [5]: 0%; pest or weed control at 250 g/ha [6]: 30%; plant injury at 250 g/ha (rice (Oryza sativa)): 0%; pest or weed control at 250 g/ha [7]: 20%
FC(F)(F)c1ccc(-c2ccccc2Oc2ncc(Cl)cn2)nc1 [Compound 27, 5-chloro-2-[2-[5-(trifluoromethyl)-2-pyridinyl]phenoxy]pyrimidine]	20%	50%	10%	80%	0%	30%	0%	0%	20%	70%	60%	90%	50%	100%	80%	100%	0%	0%	0%	0%	pest or weed control at 250 g/ha [5]: 0%; pest or weed control at 250 g/ha [6]: 30%; plant injury at 250 g/ha (rice (Oryza sativa)): 0%; pest or weed control at 250 g/ha [7]: 40%
FC(F)(F)Oc1ccc(-c2ccccc2Oc2ncc(Cl)cn2)cc1 [Compound 42, 5-chloro-2-[[4′-(trifluoromethoxy)[1,1′-biphenyl]-2-yl]oxy]pyrimidine]	20%	30%	20%	70%	20%	20%	0%	0%	10%	30%	70%	100%	60%	80%	50%	90%	0%	0%	0%	0%	pest or weed control at 250 g/ha [5]: 0%; pest or weed control at 250 g/ha [6]: 0%; plant injury at 250 g/ha (rice (Oryza sativa)): 0%; pest or weed control at 250 g/ha [7]: 0%
